Laboratory results: PubChem BioAssay (NCI)
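96-well plates; 48 h exposure; 5 concentrations. Endpoints by linear interpolation between flanking doses. Not reached: highest tested concentration assigned. GI50 marks 50% less growth. At the TGI there is no net growth.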

Columns and labels:
Experiment in all cases: DTP human tumour cell line panel, 48 h
A498 renal = system: A498 renal
BT-549 breast = system: BT-549 breast
CAKI-1 renal = system: CAKI-1 renal
IGROV1 ovarian = system: IGROV1 ovarian
K-562 leukemia = system: K-562 leukemia
MDA-MB-435 = system: MDA-MB-435
MOLT-4 leukemia = system: MOLT-4 leukemia
SK-MEL-5 melanoma = system: SK-MEL-5 melanoma
SNB-19 CNS = system: SNB-19 CNS
UACC-62 melanoma = system: UACC-62 melanoma

| Compound | TGI (A498 renal) [µM] | TGI (BT-549 breast) [µM] | TGI (CAKI-1 renal) [µM] | TGI (IGROV1 ovarian) [µM] | TGI (K-562 leukemia) [µM] | TGI (MDA-MB-435) [µM] | TGI (MOLT-4 leukemia) [µM] | TGI (SK-MEL-5 melanoma) [µM] | TGI (SNB-19 CNS) [µM] | TGI (UACC-62 melanoma) [µM] | GI50 (MDA-MB-435) [nM] | GI50 (UACC-62 melanoma) [µM] |
| --- | --- | --- | --- | --- | --- | --- | --- | --- | --- | --- | --- | --- |
| CC(C)CCCC(C)[C@H]1CC[C@H]2[C@@H]3CC[C@H]4C[C@@H](CCC=C(c5cc(Cl)c(O)c(C(=O)OC(C)(C)C)c5)c5cc(Cl)c(O)c(C(=O)OC(C)(C)C)c5)CC[C@]4(C)[C@H]3CC[C@]12C (some centres not stated) | > 50 | > 50 | > 50 | > 50 | > 50 | > 50 | > 50 | > 50 | > 50 | > 50 |  |  |
| O=C1Oc2ccccc2C(=O)/C1=C/N1C(=O)/C(=C/c2ccc([N+](=O)[O-])cc2)SC1=S | 27.6 | 31.2 | 51.3 | > 100 | 69.8 | 50.6 | > 100 | 46.4 | 79.1 | > 100 |  |  |
| Oc1cc(Cl)cc2cc(Br)cnc12 | > 88.7 | > 100 | > 27.3 | > 94.1 | > 22.6 | > 100 | 6.96 | 3.24 | > 100 | > 77.6 |  |  |
| C=C1CC/C=C(/C(=O)O)CC[C@H]2[C@@H]1CC2(C)C | > 100 | > 100 | > 100 | > 100 | > 100 | > 100 | > 100 | > 100 | > 100 | > 100 |  |  |
| CC1(C)OCC2OC3([C@H](O)CCO)OC(C)(C)OC3C2O1 (some centres not stated) | > 100 | > 100 | > 100 | > 100 | > 100 | > 100 | > 100 | > 100 | > 100 | > 100 |  |  |
| Oc1[nH]c2ccccc2c1N=NC1=NCCCCN1 | > 100 | > 100 | > 100 | > 100 | > 100 | > 100 | > 100 | > 100 | > 100 | > 100 |  |  |
| Cc1ccc(C(=O)CC(Cl)=C(Cl)Cl)cc1 | > 100 | > 100 | > 100 | > 100 | > 100 | > 100 | 47 | > 100 | > 100 | > 100 |  |  |
| COC(=O)c1ccc2n1C1CC3CC(CC2C3)C1 | > 100 | > 100 | > 100 | > 100 | > 100 | > 100 | > 100 | > 100 | > 100 | > 100 |  |  |
| Cc1cc(C)c2c(n1)S(=O)(=O)N(CCCN1CCN(c3cccc(C(F)(F)F)c3)CC1)/C(=C(\O)c1ccccc1)C2=O | > 100 | 57.3 | 11.9 | 20.5 | > 100 | 82.8 | 10.8 | 14.1 | > 100 | 27.6 |  |  |
| CCCn1cnc2c(NN=O)ncnc21 | > 100 | > 100 | > 100 | > 100 | > 100 | > 100 | > 100 | > 100 | > 100 | > 100 |  |  |
| CCOC(=O)CCC(C(=O)OCC)n1nc2ccc(Nc3c(C)[n+]([O-])c4cc(Cl)ccc4[n+]3[O-])cc2n1 (configuration not stated) | > 100 | > 100 | > 100 | > 100 | > 100 | > 100 | > 100 | > 100 | > 100 | > 100 |  |  |
| COC(=O)C(NC(=O)CNC(=O)CSc1nnc(COc2ccc(Cl)cc2)n1-c1ccccc1)C(C)C (configuration not stated) | 56.7 | 34 | 28.2 | 50.1 | > 100 | 47.4 | > 100 | 30 | 50.1 | 31.8 |  |  |
| CC(C)(C)c1cc(-c2ccc(-c3cc(C(C)(C)C)c(O)c(C(C)(C)C)c3)cc2)cc(C(C)(C)C)c1O | > 100 | > 100 | > 100 | > 100 | > 100 | > 100 | > 100 | > 100 | > 100 | > 100 |  |  |
| C#CC(O)/C=C/CCCCCCC#CC/C=C\CC#CCCCCCC/C=C/C(O)C#C (configuration not stated) | 9.06 | 9.61 | 5.98 | 2.17 | 9.67 | 5.4 | 0.371 | 3.14 | 24.8 | 7.38 |  |  |
| COC(=O)C1OC(O[C@H]2CC[C@]3(C)[C@H]4CC=C5[C@@H]6CC(C)(C)CC[C@]6(C(=O)OC)[C@H](O)C[C@@]5(C)[C@]4(C)CC[C@H]3C2(C)C)C(O)C(O)C1O (some centres not stated) | 26.1 | 30.4 | 27.2 | 24.8 | 15 | 27.7 | 25.2 | 26.2 | 26.9 | 25.1 |  |  |
| CC1=C/C(=N/N2C(=O)/C(=C/c3ccc(Cl)cc3)N=C2c2ccccc2)CC(C)(C)C1 | > 100 | > 100 | > 100 | > 100 | > 100 | > 100 | > 100 | > 100 | > 100 | > 100 |  |  |
| N[C@@H]1c2c(Br)sc(Br)c2[C@H](O)[C@@H]1O | > 100 | > 100 | > 100 | > 100 | > 100 | > 100 | > 100 | > 100 | > 100 | > 100 |  |  |

| Compound | TGI (A498 renal) [µM] | TGI (BT-549 breast) [µM] | TGI (CAKI-1 renal) [µM] | TGI (IGROV1 ovarian) [µM] | TGI (K-562 leukemia) [µM] | TGI (MDA-MB-435) [µM] | TGI (MOLT-4 leukemia) [µM] | TGI (SK-MEL-5 melanoma) [µM] | TGI (SNB-19 CNS) [µM] | TGI (UACC-62 melanoma) [µM] | GI50 (MDA-MB-435) [nM] | GI50 (UACC-62 melanoma) [µM] |
| --- | --- | --- | --- | --- | --- | --- | --- | --- | --- | --- | --- | --- |
| Cn1c(N2CCCC2)c(C=O)c(=O)n(C)c1=O | > 100 | > 100 | > 100 | > 100 | > 100 | > 100 | > 100 | > 100 | > 100 | > 100 |  |  |
| COc1ccc(-c2cc(-c3ccc(Nc4ccnc5cc(C(F)(F)F)ccc45)cc3)[nH]c(=O)c2C#N)c2ccccc12 | > 58.4 | > 100 | > 100 | > 100 | > 100 | > 56.1 | > 100 | > 100 | > 54.7 | > 100 |  |  |
| O=c1c2cc(Br)ccc2oc2nc3n(c(=O)c12)CCCS3 | > 100 | > 100 | > 100 | > 100 | > 100 | > 100 | > 100 | > 100 | > 100 | > 100 |  |  |
| Oc1ccc2c(c1)OCC(O)(c1ccccc1O)C2 (configuration not stated) | > 100 | > 100 | > 100 | > 100 | > 100 | > 100 | > 100 | > 100 | > 100 | > 100 |  |  |
| CC1=C(C(=O)OCCO[N+](=O)[O-])C(c2ccccc2C(F)(F)F)C(C(=O)OC(C)C)=C(C)N1 (configuration not stated) | 60.6 | 26.9 | 52.3 | 42.8 | > 100 | 53.5 | > 100 | 22.1 | 78.3 | 80.2 |  |  |
| NC(=O)c1n[nH]n(-c2ccccc2)c1=O | > 100 | > 100 | > 100 | > 100 | > 100 | > 100 | > 100 | > 100 | > 100 | > 100 |  |  |
| O=C(O)c1c(CC(Cc2ccc3c(c2)CCCC3)C(=O)O)ccc2c1CCCC2 (configuration not stated) | > 100 | > 100 | > 100 | > 100 | > 100 | > 100 | > 100 | > 100 | > 100 | > 100 |  |  |
| CCCCCCCCCCCCCCCCCCNc1ccn(C2OC(COP(=O)(O)O)C(O)C2O)c(=O)n1 (configuration not stated) | > 100 | > 100 | > 100 | > 100 | > 100 | > 100 | > 100 | > 100 | > 100 | > 100 |  |  |
| COc1ccc(/C=C2\CN(C)CC3=C2OC(N)=C(C#N)C3c2ccc(OC)cc2)cc1 (configuration not stated) | > 100 | > 100 | > 100 | > 95.5 | > 100 | > 71.2 | > 49 | > 100 | > 100 | > 100 |  |  |
| COC(=O)[C@H]1[C@H](C(=O)OC)[C@@H](C)c2c(ccc3c2[nH]c2ccccc23)[C@@H]1C | > 100 | > 100 | > 100 | > 100 | > 100 | > 100 | 6.7 | > 100 | > 100 | > 100 |  |  |
| Cc1cc2c(cc1O)CC[C@@H]1[C@@H]2CC[C@]2(C)[C@@H](O)CC[C@@H]12 | 37.9 | 20.1 | 59.6 | 45.4 | 13.2 | 3.65 | 17.7 | 16.1 | 33.1 | 21 | 1800 | 5.39 |
| C=CCN1C(=O)/C(=C/c2ccc(C)cc2)N=C1SC/C=C/C | 84.9 | > 100 | > 100 | > 100 | 89.4 | > 100 | 37.8 | 44.6 | > 100 | > 100 |  |  |
| O=c1nc2n(cc1/C=C\Br)C1CC(O)C(CO2)O1 (configuration not stated) | > 100 | > 100 | > 100 | > 100 | > 100 | > 100 | > 100 | > 100 | > 100 | > 100 |  |  |
| C=C1C(=O)OC2/C=C(\C)C(O)CC(O)C(C)(O)CC(OC(=O)/C(C)=C/C)C12 (configuration not stated) | > 84.3 | 83.9 | > 100 | > 100 | > 100 | > 100 | > 100 | > 100 | > 100 | > 100 |  |  |
| O=C(CCCCCCCCC(=O)NN1C(=O)/C(=C\c2ccc(O)c(O)c2)SC1c1c(O)ccc2ccccc12)NN1C(=O)C(=Cc2ccc(O)c(O)c2)SC1c1c(O)ccc2ccccc12 (configuration not stated) | 75.9 | > 100 | > 100 | > 55.5 | > 60.8 | > 100 | > 29.8 | 19.4 | > 70.3 | 45.6 |  |  |
| O=C1CC(Br)c2c(Cl)sc(Cl)c21 (configuration not stated) | 38.4 | 61.4 | 9.79 | 24.7 | 13.7 | 7.38 | 5.54 | 41.9 | 37.8 | 25.1 |  |  |
